Tests used:
[1] = Inhibition of HDAC by fluorescence assay
HCT-116 = experiment: Anticancer activity against human HCT116 cells after 72 hrs by MTT assay; format: functional
MDA-MB-231 = experiment: Anticancer activity against human MDA-MB-231 cells after 72 hrs by MTT assay; format: functional
DU-145 [2] = experiment: Anticancer activity against human DU145 cells after 72 hrs by MTT assay; format: functional
A2780 = experiment: Anticancer activity against human A2780 cells after 72 hrs by MTT assay; format: functional
DU-145 [3] = experiment: Ratio of MS-275 GI to compound GI for human DU145 cells; format: functional
[4] = Ratio of MS-275 IC50 to compound IC50 to for HDAC

Row | Structure (SMILES) | IC50 [1] [µM] | GI (DU-145 [2]) [µM] | GI (A2780) [µM] | also measured
1 | Nc1cccc(C(=O)NCC(=O)c2ccc(C(=O)Nc3ccccc3N)cc2)c1 | 70.7 | – | – | –
2 | Nc1cc(C(=O)NCC(=O)c2ccc(C(=O)Nc3ccccc3N)cc2)ccn1 | 42.6 | – | – | –
3 | Nc1ccccc1NC(=O)c1ccc(CNC(=O)OCc2cccnc2)cc1 [ENTINOSTAT] | 13 | 7.9 | 5.7 | GI (HCT-116): 3.1 µM; GI (MDA-MB-231): 2.8 µM
4 | Nc1ccccc1NC(=O)c1ccc(C(=O)CNC(=O)c2ccccn2)cc1 | 30.2 | – | – | –
5 | Nc1ccc(S(=O)(=O)NCC(=O)c2ccc(C(=O)Nc3ccccc3N)cc2)cc1 | 3.8 | 0.16 | 5.7 | Ratio (DU-145 [3]): 50
6 | Cc1ccc(S(=O)(=O)NCC(=O)c2ccc(C(=O)Nc3ccccc3N)cc2)cc1 | 22.4 | 37.7 | >100 | GI (HCT-116): 18.7 µM; GI (MDA-MB-231): 18.4 µM; Ratio IC50 [4]: 4
7 | Nc1ccccc1NC(=O)c1ccc(C(=O)CNS(=O)(=O)c2cccnc2Cl)cc1 | 11.1 | – | – | –
8 | Nc1ccccc1NC(=O)c1ccc(C(=O)CNC(=O)c2ccccc2)cc1 | > 100 | – | – | –
9 | Nc1ccc(C(=O)NCC(=O)c2ccc(C(=O)Nc3ccccc3N)cc2)cc1 | 50.2 | – | – | –
